# Data published in patent publication US20240158446A1, “CYCLIC COMPOUND HAVING SELECTIVE INHIBITORY ACTION ON KRAS OVER HRAS AND NRAS” (CHUGAI SEIYAKU KABUSHIKI KAISHA, priority 2021, published 2024).
# Where a SMILES comes first, the peptide text is derived from it. Bridges are numbered along the chain shown (N, C = ends). [ ]: non-standard residue; d: D form. The star is where a group is joined. hPhe(3-Cl-4-CF3) = N[C@@H](CCc1ccc(C(F)(F)F)c(Cl)c1)C(=O)O; NPrPhe(4-CF3) = CCCN[C@@H](Cc1ccc(C(F)(F)F)cc1)C(=O)O; NMeGly(cPent) = CN[C@H](C(=O)O)C1CCCC1; NMeD = CN[C@@H](CC(=O)O)C(=O)O; NMeL = CN[C@@H](CC(C)C)C(=O)O; Morpholide = C1CN(*)CCO1; Ac5c = NC1(C(=O)O)CCCC1; NEtG = CCNCC(=O)O; Sar = CNCC(=O)O
# Experiments:
# [1] = test system: human lung cancer strain NCI-H441; test: cells; conditions: NCI-H441, 96 h, read-out: NCI-H441 IC50 (nM), NCI-H441 cell proliferation, 4 days, CellTiter-Glo;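 note: cell proliferation inhibition after four days measured by CellTiter-Glo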
# [2] = molecular target: GDP-bound KRAS wild-type protein (Homo sapiens, UniProt P01116); test: Binding to KRAS by surface plasmon resonance (SPR), Single Cycle Kinetics; conditions: SPR, Single Cycle Kinetics, GDP-bound KRAS wild-type protein; read-out: KRAS KD
# [3] = molecular target: GDP-bound HRAS wild-type protein (Homo sapiens, UniProt P01112); test: Binding to HRAS by surface plasmon resonance (SPR), Single Cycle Kinetics; conditions: ratio of KD for GDP-bound HRAS wild-type protein to KD for KRAS, SPR
# [4] = molecular target: GDP-bound NRAS wild-type protein (Homo sapiens, UniProt P01111); test: Binding to NRAS by surface plasmon resonance (SPR), Single Cycle Kinetics; conditions: ratio of KD for GDP-bound NRAS wild-type protein to KD for KRAS, SPR
# Sequence of GDP-bound NRAS wild-type protein (P01111 whole entry): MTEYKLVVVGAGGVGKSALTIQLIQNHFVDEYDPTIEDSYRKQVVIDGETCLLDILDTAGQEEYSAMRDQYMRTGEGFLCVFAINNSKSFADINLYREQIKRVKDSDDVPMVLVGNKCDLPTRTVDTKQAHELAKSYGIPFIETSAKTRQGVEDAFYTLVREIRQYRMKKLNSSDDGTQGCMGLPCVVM
# Sequence of GDP-bound HRAS wild-type protein (P01112 whole entry): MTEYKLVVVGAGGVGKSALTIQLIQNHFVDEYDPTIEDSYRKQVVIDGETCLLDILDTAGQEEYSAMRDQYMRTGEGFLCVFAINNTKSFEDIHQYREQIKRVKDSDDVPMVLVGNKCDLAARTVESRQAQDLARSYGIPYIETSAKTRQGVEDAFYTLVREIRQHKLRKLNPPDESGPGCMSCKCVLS
# Sequence of GDP-bound KRAS wild-type protein (P01116 whole entry): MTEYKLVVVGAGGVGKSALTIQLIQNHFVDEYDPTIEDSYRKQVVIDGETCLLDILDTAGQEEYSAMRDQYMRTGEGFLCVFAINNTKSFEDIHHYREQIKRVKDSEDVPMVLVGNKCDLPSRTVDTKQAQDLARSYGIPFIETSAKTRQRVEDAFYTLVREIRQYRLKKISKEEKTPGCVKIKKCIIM
Compound,IC50 [1] [nM],Kd [2] [nM],HRAS/KRAS (KD ratio) [3],NRAS/KRAS (KD ratio) [4]
CC[C@H](C)[C@@H]1NC(=O)[C@H](CC2CCC2)N(C)C(=O)C[C@@H](C(=O)N(C)C)N(C)C(=O)[C@H](C2CCCC2)N(C)C(=O)C2(CC(C)(C)C2)NC(=O)[C@@H]2CCCN2C(=O)[C@H](CCc2cc(F)c(C(F)(F)F)c(F)c2)NC(=O)CN(C)C(=O)[C@H](Cc2ccc(C(F)(F)F)cc2)N2CC/C=C\C[C@@H](C2=O)N(C)C(=O)CN(C)C1=O [PP1728],18.3,0.16,A (a compound having 10 or more and less than 20 is denoted as A),A (a compound having 10 or more and less than 20 is denoted as A)
CCO[C@@H]1C[C@H]2C(=O)NC3(CC(C)(C)C3)C(=O)N(C)[C@@H](C3CCCC3)C(=O)N(C)[C@H](CC)CC(=O)N(C)[C@@H](CC3CC3)C(=O)N[C@@H]([C@@H](C)CC)C(=O)N(C)CC(=O)N(C)[C@H]3C/C=C\CCN(C3=O)[C@@H](Cc3ccc(C(F)(F)F)cc3)C(=O)N(C)CC(=O)N[C@@H](CCc3cc(F)c(C(F)(F)F)c(F)c3)C(=O)N2C1 [PP1629],20.7,0.36,B (a compound having 3 or more and less than 10 is denoted as B),B (a compound having 3 or more and less than 10 is denoted as B)
CC[C@H](C)[C@@H]1NC(=O)[C@H](CC(C)C)N(C)C(=O)C[C@@H](C(=O)N(CC)CC)N(C)C(=O)[C@H](C2CCCC2)N(C)C(=O)C2(CCC2)NC(=O)[C@@H]2C[C@H](C)CN2C(=O)[C@H](CCc2ccc(C(F)(F)F)c(OC)c2)NC(=O)CN(C)C(=O)[C@H](Cc2ccc(C)cc2)N2CC/C=C\C[C@@H](C2=O)N(C)C(=O)CN(C)C1=O [PP1885],18.3,0.23,A (a compound having 10 or more and less than 20 is denoted as A),AA (a compound having 20 or more is denoted as AA)
CCO[C@@H]1C[C@H]2C(=O)NC3(CC(C)(C)C3)C(=O)N(C)[C@@H](C3CCCC3)C(=O)N(C)[C@H](C(=O)N(CC)CC)CC(=O)N(C)[C@@H](CC)C(=O)N[C@@H]([C@@H](C)CC)C(=O)N(C)CC(=O)N(C)[C@H]3C/C=C\CCN(C3=O)[C@@H](Cc3ccc(C)cc3)C(=O)N(C)CC(=O)N[C@@H](CCc3ccc(C(F)(F)F)c(OC)c3)C(=O)N2C1 [PP1881],16.7,0.29,A (a compound having 10 or more and less than 20 is denoted as A),A (a compound having 10 or more and less than 20 is denoted as A)
C#CC[C@H]1C(=O)N[C@@H]([C@@H](C)CC)C(=O)N(C)CC(=O)N(C)[C@H]2C/C=C\CCN(C2=O)[C@@H](Cc2ccc(C(F)(F)F)cc2)C(=O)N(C)CC(=O)N[C@@H](CCc2cc(F)c(C(F)(F)F)c(F)c2)C(=O)N2C[C@H](F)C[C@H]2C(=O)NC2(CC(C)(C)C2)C(=O)N(C)[C@@H](C2CCCC2)C(=O)N(C)[C@H](C(=O)N(C)CCC)CC(=O)N1C [PP1692],4.3,0.11,A (a compound having 10 or more and less than 20 is denoted as A),AA (a compound having 20 or more is denoted as AA)
CCO[C@@H]1C[C@H]2C(=O)NC3(CC(F)(F)C3)C(=O)N(C)[C@@H](C3CCCC3)C(=O)N(C)[C@H](CC)CC(=O)N(C)[C@@H](CC3CC3)C(=O)N[C@@H]([C@@H](C)CC)C(=O)N(C)CC(=O)N(C)[C@H]3C/C=C\CCN(C3=O)[C@@H](Cc3ccc(C(F)(F)F)cc3)C(=O)N(C)CC(=O)N[C@@H](CCc3cc(F)c(C(F)(F)F)c(F)c3)C(=O)N2C1 [PP1633],15.1,0.6,B (a compound having 3 or more and less than 10 is denoted as B),A (a compound having 10 or more and less than 20 is denoted as A)
CCO[C@@H]1C[C@H]2C(=O)NC3(CC(C)(C)C3)C(=O)N(C)[C@@H](C3CCCC3)C(=O)N(C)[C@H](C(=O)N(C)C)CC(=O)N(C)[C@@H](CC)C(=O)N[C@@H]([C@@H](C)CC)C(=O)N(C)CC(=O)N(C)[C@H]3C/C=C\CCN(C3=O)[C@@H](Cc3ccc(C)cc3)C(=O)N(C)CC(=O)N[C@@H](CCc3ccc(C(F)(F)F)c(Cl)c3)C(=O)N2C1 [PP1878],8.8,0.063,A (a compound having 10 or more and less than 20 is denoted as A),A (a compound having 10 or more and less than 20 is denoted as A)

# Further lines, with some results ahead:
IC50 [1] [nM],Kd [2] [nM],Compound,HRAS/KRAS (KD ratio) [3],NRAS/KRAS (KD ratio) [4]
17.7,0.21,CCCN(C)C(=O)[C@@H]1CC(=O)N(C)[C@@H](C(C)C)C(=O)N[C@@H]([C@@H](C)CC)C(=O)N(C)CC(=O)N(C)[C@H]2C/C=C\CCN(C2=O)[C@@H](Cc2ccc(C(F)(F)F)cc2)C(=O)N(C)CC(=O)N[C@@H](CCc2cc(F)c(C(F)(F)F)c(F)c2)C(=O)N2C[C@H](OCC)C[C@H]2C(=O)NC2(CCC2)C(=O)N(C)[C@@H](C2CCCC2)C(=O)N1C [PP1992],B (a compound having 3 or more and less than 10 is denoted as B),AA (a compound having 20 or more is denoted as AA)
4.9,0.12,CCO[C@@H]1C[C@H]2C(=O)NC3(CCC3)C(=O)N(C)[C@@H](C3CCCC3)C(=O)N(C)[C@H](C(=O)N(C)CC)CC(=O)N(C)[C@@H](C3CC3)C(=O)N[C@@H]([C@@H](C)CC)C(=O)N(C)CC(=O)N(C)[C@H]3C/C=C\CCN(C3=O)[C@@H](Cc3ccc(C(F)(F)F)cc3)C(=O)N(C)CC(=O)N[C@@H](CCc3ccc(C(F)(F)F)c(OC)c3)C(=O)N2C1 [PP2021],B (a compound having 3 or more and less than 10 is denoted as B),A (a compound having 10 or more and less than 20 is denoted as A)
6.6,0.053,CCO[C@@H]1C[C@H]2C(=O)NC3(CC(C)(C)C3)C(=O)N(C)[C@@H](C3CCCC3)C(=O)N(C)[C@H](C(=O)N(C)C)CC(=O)N(C)[C@@H](C3CCC3)C(=O)N[C@@H]([C@@H](C)CC)C(=O)N(C)CC(=O)N(C)[C@H]3C/C=C\CCN(C3=O)[C@@H](Cc3ccc(C(F)(F)F)cc3)C(=O)N(C)CC(=O)N[C@@H](CCc3ccc(C(F)(F)F)c(OC)c3)C(=O)N2C1 [PP1987],A (a compound having 10 or more and less than 20 is denoted as A),A (a compound having 10 or more and less than 20 is denoted as A)
74,2.1,CCCN1C(=O)CN(C)C(=O)CNC(=O)[C@H]([C@@H](C)CC)NC(=O)[C@H](CC(C)C)N(C)C(=O)C[C@@H](C(=O)N2CCOCC2)N(C)C(=O)[C@H](C2CCCC2)N(C)C(=O)C2(CCCC2)NC(=O)[C@@H]2CCCN2C(=O)[C@H](CCc2ccc(C(F)(F)F)c(Cl)c2)NC(=O)CN(CC)C(=O)[C@@H]1Cc1ccc(C(F)(F)F)cc1 [PP1969] ([NMeL]IG[Sar][NPrPhe(4-CF3)][NEtG][hPhe(3-Cl-4-CF3)]P[Ac5c][NMeGly(cPent)][NMeD]-Morpholide; lactam N-11),C (A compound having a KD ratio of 0.1 or more and less than 3 is denoted as C),B (a compound having 3 or more and less than 10 is denoted as B)
